The source of these data is US12522602B2, “Derivatives having 2,3-dihydro-1H-indene or 2,3-dihydrobenzofuran moiety or pharmaceutically acceptable salt thereof and pharmaceutical compositions comprising the same” (YUHAN CORPORATION, priority 2019, dated 2026).

SMILES strings stand for the structures.

This experiment has as its system GM1 production in Jurkat cells. As to the kind of experiment: cells. It is filed as cell-based. The settings on record: Homo sapiens, Jurkat, 72 h.
By IC50 is commonly meant the concentration needed to halve the response being measured. High values mean weaker potency in that assay, low ones greater potency in that assay. As to `COc1ccc(C#N)cc1-c1ccc2c(c1)CC(C)(C)C2NC(=O)O[C@@H]1CN2CCC1CC2` (stereo partly drawn) [Example 244, (S)-quinuclidin-3-yl (5-(5-cyano-2-methoxyphenyl)-2,2-dimethyl-2,3-dihydro-1H-inden-1-yl)carbamate], the IC50 stood at 0.038 µM. `CCOc1cc(-c2ccc3c(c2)CC(C)(C)C3NC(=O)O[C@@H]2CN3CCC2CC3)cc(C(F)(F)F)c1` (stereo partly drawn) [Example 245, (S)-quinuclidin-3-yl (5-(3-ethoxy-5-(trifluoromethyl)phenyl)-2,2-dimethyl-2,3-dihydro-1H-inden-1-yl)carbamate]: it took 0.023 µM to reach half-maximal inhibition (IC50). As to `CC1(C)Cc2cc(-c3cc(F)cc(C(F)(F)F)c3)ccc2C1NC(=O)O[C@@H]1CN2CCC1CC2` (stereo partly drawn) [Example 246, (S)-quinuclidin-3-yl (5-(3-fluoro-5-(trifluoromethyl)phenyl)-2,2-dimethyl-2,3-dihydro-1H-inden-1-yl)carbamate], the IC50 amounted to 0.0147 µM. In turn, `Cc1cc(-c2ccc3c(c2)CC(C)(C)C3NC(=O)O[C@@H]2CN3CCC2CC3)ccc1OC(F)(F)F` (stereo partly drawn) [Example 247, (S)-quinuclidin-3-yl (2,2-dimethyl-5-(3-methyl-4-(trifluoromethoxy)phenyl)-2,3-dihydro-1H-inden-1-yl)carbamate] showed an IC50 of 0.041 µM. For the molecule `CSc1cc(-c2ccc3c(c2)CC(C)(C)C3NC(=O)O[C@@H]2CN3CCC2CC3)cc(C(F)(F)F)c1` (stereo partly drawn) [Example 248, (S)-quinuclidin-3-yl (2,2-dimethyl-5-(3-(methylthio)-5-(trifluoromethyl)phenyl)-2,3-dihydro-1H-inden-1-yl)carbamate], the IC50 is 0.0149 µM. In turn, `CC1(C)Cc2cc(-c3ccc(OC(F)(F)F)c(F)c3)ccc2C1NC(=O)O[C@@H]1CN2CCC1CC2` (stereo partly drawn) [Example 249, (S)-quinuclidin-3-yl (5-(3-fluoro-4-(trifluoromethoxy)phenyl)-2,2-dimethyl-2,3-dihydro-1H-inden-1-yl)carbamate] showed an IC50 of 0.037 µM. In turn, `CCOc1cc(C(F)(F)F)ccc1-c1ccc2c(c1)CC(C)(C)C2NC(=O)O[C@@H]1CN2CCC1CC2` (stereo partly drawn) [Example 250, (S)-quinuclidin-3-yl (5-(2-ethoxy-4-(trifluoromethyl)phenyl)-2,2-dimethyl-2,3-dihydro-1H-inden-1-yl)carbamate] yielded an IC50 of 0.033 µM.

The molecule `COc1ccc(C(F)(F)F)cc1-c1ccc2c(c1)CC(C)(C)C2NC(=O)O[C@@H]1CN2CCC1CC2` (stereo partly drawn) [Example 251, (S)-quinuclidin-3-yl (5-(2-methoxy-5-(trifluoromethyl)phenyl)-2,2-dimethyl-2,3-dihydro-1H-inden-1-yl)carbamate] registered an IC50 of 0.0072 µM. As to `CC1(C)Cc2cc(-c3ccc(C(F)(F)F)cc3C(F)(F)F)ccc2C1NC(=O)O[C@@H]1CN2CCC1CC2` (stereo partly drawn) [Example 252, (S)-quinuclidin-3-yl (5-(2,4-bis(trifluoromethyl)phenyl)-2,2-dimethyl-2,3-dihydro-1H-inden-1-yl)carbamate], the IC50 is 0.0439 µM. Molecule `Cc1c(Cl)cccc1-c1ccc2c(c1)CC(C)(C)C2NC(=O)O[C@@H]1CN2CCC1CC2` (stereo partly drawn) [Example 253, (S)-quinuclidin-3-yl (5-(3-chloro-2-methylphenyl)-2,2-dimethyl-2,3-dihydro-1H-inden-1-yl)carbamate] showed a half-maximal inhibitory concentration (IC50) of 0.0372 µM. For `COc1cc(-c2ccc3c(c2)CC(C)(C)C3NC(=O)O[C@@H]2CN3CCC2CC3)ccc1C` (stereo partly drawn) [Example 254, (S)-quinuclidin-3-yl (5-(3-methoxy-4-methylphenyl)-2,2-dimethyl-2,3-dihydro-1H-inden-1-yl)carbamate], the concentration for half-maximal inhibition (IC50) came to 0.0452 µM. As to `Cc1cc(-c2ccc3c(c2)CC(C)(C)C3NC(=O)O[C@@H]2CN3CCC2CC3)ccc1F` (stereo partly drawn) [Example 255, (S)-quinuclidin-3-yl (5-(4-fluoro-3-methylphenyl)-2,2-dimethyl-2,3-dihydro-1H-inden-1-yl)carbamate], the concentration for half-maximal inhibition (IC50) was 0.0358 µM. On to `CCOc1ccc(F)cc1-c1ccc2c(c1)CC(C)(C)C2NC(=O)O[C@@H]1CN2CCC1CC2` (stereo partly drawn) [Example 256, (S)-quinuclidin-3-yl (5-(2-ethoxy-5-fluorophenyl)-2,2-dimethyl-2,3-dihydro-1H-inden-1-yl)carbamate], for which half-maximal inhibition (IC50) was put at 0.0246 µM. Turning to `CCCOc1cc(F)cc(-c2ccc3c(c2)CC(C)(C)C3NC(=O)O[C@@H]2CN3CCC2CC3)c1` (stereo partly drawn) [Example 257, (S)-quinuclidin-3-yl (5-(3-fluoro-5-propoxyphenyl)-2,2-dimethyl-2,3-dihydro-1H-inden-1-yl)carbamate], the IC50 turned out to be 0.0274 µM. Molecule `CC1(C)Cc2cc(-c3cc(C(F)(F)F)cc(C(F)(F)F)c3)ccc2C1NC(=O)O[C@@H]1CN2CCC1CC2` (stereo partly drawn) [Example 258, (S)-quinuclidin-3-yl (5-(3,5-bis(trifluoromethyl)phenyl)-2,2-dimethyl-2,3-dihydro-1H-inden-1-yl)carbamate] registered an IC50 of 0.0174 µM.

In turn, `Cc1ccc(-c2ccc3c(c2)CC(C)(C)C3NC(=O)O[C@@H]2CN3CCC2CC3)cc1Cl` (stereo partly drawn) [Example 259, (S)-quinuclidin-3-yl (5-(3-chloro-4-methylphenyl)-2,2-dimethyl-2,3-dihydro-1H-inden-1-yl)carbamate] showed an IC50 of 0.0102 µM. To `Cc1ccc(C)c(-c2ccc3c(c2)CC(C)(C)C3NC(=O)O[C@@H]2CN3CCC2CC3)c1` (stereo partly drawn) [Example 260, (S)-quinuclidin-3-yl (5-(2,5-dimethylphenyl)-2,2-dimethyl-2,3-dihydro-1H-inden-1-yl)carbamate] belongs 0.0144 µM; to `CC1(C)Cc2cc(-c3ccc(F)c(Cl)c3)ccc2C1NC(=O)O[C@@H]1CN2CCC1CC2` (stereo partly drawn) [Example 261, (S)-quinuclidin-3-yl (5-(3-chloro-4-fluorophenyl)-2,2-dimethyl-2,3-dihydro-1H-inden-1-yl)carbamate], 0.0515 µM; to `CCOc1ccc(-c2ccc3c(c2)CC(C)(C)C3NC(=O)O[C@@H]2CN3CCC2CC3)cn1` (stereo partly drawn) [Example 262, (S)-quinuclidin-3-yl (5-(6-ethoxypyridin-3-yl)-2,2-dimethyl-2,3-dihydro-1H-inden-1-yl)carbamate], 0.0344 µM. The molecule `CCOc1cc(-c2ccc3c(c2)CC(C)(C)C3NC(=O)O[C@@H]2CN3CCC2CC3)ccn1` (stereo partly drawn) [Example 263, (S)-quinuclidin-3-yl (5-(2-ethoxypyridin-4-yl)-2,2-dimethyl-2,3-dihydro-1H-inden-1-yl)carbamate] registered an IC50 of 0.0349 µM. `CC(C)Oc1cc(-c2ccc3c(c2)CC(C)(C)C3NC(=O)O[C@@H]2CN3CCC2CC3)ccn1` (stereo partly drawn) [Example 264, (S)-quinuclidin-3-yl (5-(2-isopropoxypyridin-4-yl)-2,2-dimethyl-2,3-dihydro-1H-inden-1-yl)carbamate] gave an IC50 of 0.0144 µM. In the case of `CCCOc1ccc(-c2ccc3c(c2)CC(C)(C)C3NC(=O)O[C@@H]2CN3CCC2CC3)cn1` (stereo partly drawn) [Example 265, (S)-quinuclidin-3-yl (2,2-dimethyl-5-(6-propoxypyridin-3-yl)-2,3-dihydro-1H-inden-1-yl)carbamate], the IC50 amounted to 0.0067 µM.

Take `CCCCOc1ccc(-c2ccc3c(c2)CC(C)(C)C3NC(=O)O[C@@H]2CN3CCC2CC3)cn1` (stereo partly drawn) [Example 266, (S)-quinuclidin-3-yl (5-(6-butoxypyridin-3-yl)-2,2-dimethyl-2,3-dihydro-1H-inden-1-yl)carbamate]: it took 0.0047 µM to reach half-maximal inhibition (IC50). In the case of `COCCOc1ccc(-c2ccc3c(c2)CC(C)(C)C3NC(=O)O[C@@H]2CN3CCC2CC3)cn1` (stereo partly drawn) [Example 267, (S)-quinuclidin-3-yl (5-(6-(2-methoxyethoxy)pyridin-3-yl)-2,2-dimethyl-2,3-dihydro-1H-inden-1-yl)carbamate], the IC50 turned out to be 0.0831 µM. `CC(C)COc1ccc(-c2ccc3c(c2)CC(C)(C)C3NC(=O)O[C@@H]2CN3CCC2CC3)cn1` (stereo partly drawn) [Example 268, (S)-quinuclidin-3-yl (5-(6-isobutoxypyridin-3-yl)-2,2-dimethyl-2,3-dihydro-1H-inden-1-yl)carbamate] came in with an IC50 of 0.0025 µM.

Consider `CC(C)Cc1cccc(-c2ccc3c(c2)CC(C)(C)C3NC(=O)O[C@@H]2CN3CCC2CC3)c1` (stereo partly drawn) [Example 269, (S)-quinuclidin-3-yl (5-(3-isobutylphenyl)-2,2-dimethyl-2,3-dihydro-1H-inden-1-yl)carbamate], for which the midpoint of inhibition, the IC50, lay at 0.0065 µM. The molecule `CCCCOc1ccc(-c2ccc3c(c2)CC(C)(C)C3NC(=O)O[C@@H]2CN3CCC2CC3)cc1` (stereo partly drawn) [Example 270, (S)-quinuclidin-3-yl (5-(4-butoxyphenyl)-2,2-dimethyl-2,3-dihydro-1H-inden-1-yl)carbamate] showed an IC50 of 0.0023 µM. `COc1ccnc(OC)c1-c1ccc2c(c1)CC(C)(C)C2NC(=O)O[C@@H]1CN2CCC1CC2` (stereo partly drawn) [Example 271, (S)-quinuclidin-3-yl (5-(2,4-dimethoxypyridin-3-yl)-2,2-dimethyl-2,3-dihydro-1H-inden-1-yl)carbamate] came in with an IC50 of 0.0306 µM.

For `CC(=O)c1sccc1-c1ccc2c(c1)CC(C)(C)C2NC(=O)O[C@@H]1CN2CCC1CC2` (stereo partly drawn) [Example 272, (S)-quinuclidin-3-yl (5-(2-acetylthiophen-3-yl)-2,2-dimethyl-2,3-dihydro-1H-inden-1-yl)carbamate], the IC50 was determined as 0.0493 µM. To `CC1(C)Cc2cc(/C=C/c3cccc(F)c3)ccc2C1NC(=O)O[C@@H]1CN2CCC1CC2` (stereo partly drawn) [Example 273, (S)-quinuclidin-3-yl (5-((E)-3-fluorostyryl)-2,2-dimethyl-2,3-dihydro-1H-inden-1-yl)carbamate] belongs 0.0134 µM. For `CCc1ccc(/C=C/c2ccc3c(c2)CC(C)(C)C3NC(=O)O[C@@H]2CN3CCC2CC3)cc1` (stereo partly drawn) [Example 274, (S)-quinuclidin-3-yl (5-((E)-4-ethylstyryl)-2,2-dimethyl-2,3-dihydro-1H-inden-1-yl)carbamate], half-maximal inhibition (IC50) required 0.0103 µM. For `CC1(C)Cc2cc(/C=C/C3CCCCC3)ccc2C1NC(=O)O[C@@H]1CN2CCC1CC2` (stereo partly drawn) [Example 275, (S)-quinuclidin-3-yl (5-((E)-2-cyclohexylvinyl)-2,2-dimethyl-2,3-dihydro-1H-inden-1-yl)carbamate], the IC50 came out at 0.025 µM.

For `CCC1(CC)Cc2cc(-c3ccc(F)cc3)ccc2C1NC(=O)O[C@@H]1CN2CCC1CC2` (stereo partly drawn) [Example 276, (S)-quinuclidin-3-yl (2,2-diethyl-5-(4-fluorophenyl)-2,3-dihydro-1H-inden-1-yl)carbamate], it took 0.0332 µM to reach half-maximal inhibition (IC50).
